From publication PMC8949129, “Unique Phenanthrenes from Juncus ensifolius and Their Antiproliferative and Synergistic Effects with the Conventional Anticancer Agent Doxorubicin against Human Cancer Cell Lines” (Pharmaceutics, 2022)
Like-named read-outs stand apart in the source and are kept apart here.

How the values were obtained:
[1] = test system: COLO 205 doxorubicin-sensitive colonic adenocarcinoma cells; test: Antiproliferative MTT assay, COLO 205; format: cell-based, human; conditions: for IC50: MTT, 72 h, four parallel measurements, read-out: IC50 (µM) ± SD COLO 205; for SI MRC-5/COLO 205: selectivity index: IC50 in non-tumour cells / IC50 in cancer cells
Experimental: (§1) The human colon adenocarcinoma cells (COLO 205 sensitive and the resistant COLO 320/MDR-LRP expressing P-gp), namely, ATCC-CCL-220.1 (COLO 320) and CCL-222 (COLO 205) were cultured in RPMI 1640 medium supplemented with 10% heat-inactivated fetal bovine serum, 2 mM L-glutamine, 1 mM Na pyruvate, and 100 mM HEPES. HeLa (ATCC® CCL-2™) human cervix carcinoma cells, and MRC-5 (ATCC® CCL-171) human embryonal lung fibroblast cells were cultured in Eagle’s minimal essential medium (EMEM, containing 4.5 g/L glucose) supplemented with a non-essential amino acid mixture, a selection of vitamins, and 10% heat-inactivated fetal bovine serum. The cell lines were detached with 0.25% trypsin and 0.02% EDTA for 5 min at 37 °C.
(§2) In the study, human colonic adenocarcinoma cell lines (doxorubicin-sensitive COLO 205 and multidrug resistant COLO 320 colonic adenocarcinoma cells), HeLa human cervix carcinoma cells and the MRC-5 non-cancerous human embryonic lung fibroblast cell line were used to determine the effect of the compounds on cell growth. The effects of increasing concentrations of compounds on cell growth were tested in 96-well flat-bottomed microtiter plates. […] The compounds were diluted in a volume of 100 μL of the medium. The adherent cells were cultured in 96-well flat-bottomed microtiter plates using EMEM supplemented with 10% heat-inactivated fetal bovine serum. The density of the cells was adjusted to 6 × 10^3 cells in 100 µL per well, the cells were seeded prior to the assay for 24 h at 37 °C, with 5% CO2, and then the medium was removed from the plates, and fresh medium (100 µL per well) was added to the cells. The effects of increasing concentrations of compounds on cell proliferation were tested in 96-well flat-bottomed microtiter plates. The compounds were diluted in the appropriate medium; the dilutions of compounds were performed in separate plates and then added to the cells. The starting concentration of the compounds was 100 µM, and two-fold serial dilution was performed (concentration range: 100–0.19 µM). The culture plates were incubated at 37 °C for 72 h; at the end of the incubation period, 20 µL of MTT (thiazolyl blue tetrazolium bromide, Sigma) solution (from a stock solution of 5 mg/mL) was added to each well. After incubation at 37 °C for 4 h, 100 µL of sodium dodecyl sulfate (SDS) (Sigma) solution (10% in 0.01 M HCI) was added to each well, and the plates were further incubated at 37 °C overnight. Cell growth was determined by measuring the optical density (OD) at 540/630 nm, with a Multiscan EX ELISA reader (Thermo Labsystems, Cheshire, WA, USA). Inhibition of cell growth (expressed as IC50: inhibitory concentration that reduces the growth of the cells exposed to the tested compounds by 50%) was determined from the sigmoid curve where 100 − ((ODsample − ODmedium control)/(ODcell control − ODmedium control)) × 100 was plotted against the logarithm of the compound concentrations. Curves were fitted by Prism5 software (GraphPad Software Inc., San Diego, CA, USA) from four parallel experiments for each cell line. Results are expressed in terms of IC50, defined as the inhibitory dose that reduces the proliferation of the cells exposed to the tested compounds by 50% [20].

[2] = test system: HeLa, COLO 205, and COLO 320 cancer cells; test: Antiproliferative MTT assay, summary over the tested cell lines; format: cell-based; conditions: Homo sapiens, 72 h, COLO 205, COLO 320, read-out: IC50 values, range over the cancer cell lines
Experimental: as §1
In the study, human colonic adenocarcinoma cell lines (doxorubicin-sensitive COLO 205 and multidrug resistant COLO 320 colonic adenocarcinoma cells), HeLa human cervix carcinoma cells and the MRC-5 non-cancerous human embryonic lung fibroblast cell line were used to determine the effect of the compounds on cell growth. The effects of increasing concentrations of compounds on cell growth were tested in 96-well flat-bottomed microtiter plates. […] The compounds were diluted in a volume of 100 μL of the medium. […] Cell growth was determined by measuring the optical density (OD) at 540/630 nm, with a Multiscan EX ELISA reader (Thermo Labsystems, Cheshire, WA, USA). […]

[3] = test system: HeLa human cervix carcinoma cells; test: Antiproliferative MTT assay, HeLa; format: cell-based; conditions: for IC50: MTT, 72 h, four parallel measurements, read-out: IC50 (µM) ± SD HeLa; for SI MRC-5/HeLa: selectivity index: IC50 in non-tumour cells / IC50 in cancer cells
Experimental: as §1, §2

HeLa cells [4] = test: Drug combination assay with doxorubicin (MTT, CompuSyn); format: cell-based, human; design: key to CI (combination index): CI <1 synergy, ~1 additivity, >1 antagonism; conditions: for Interaction: interaction type with doxorubicin; for CI (combination index): with doxorubicin, 72 h, average over drug ratios at IC50
Experimental: The HeLa cell line was used to perform this assay. Doxorubicin (2 mg/mL, Teva Pharmaceuticals, Budapest, Hungary) was serially diluted in the horizontal direction, starting with 8.6 µM. The resistance modifier was subsequently diluted in the vertical direction, and the starting concentration was determined based on the IC50. The dilutions of doxorubicin were made in a horizontal direction in 100 µL, and the dilutions of the resistance modifiers occurred vertically in the microtiter plate in a 50 µL volume. The compounds and doxorubicin were diluted separately. […] Then, diluted compounds with a volume of 50 μL were added to each well to reach a final volume of 200 μL. The plates were incubated for 72 h at 37 °C in a CO2 incubator, and at the end of the incubation period, the cell growth was determined by the MTT staining method, as described earlier. Drug interactions were evaluated using CompuSyn software. Each dose-response curve (for individual agents as well as combinations) was fit to a linear model using the median effect equation in order to obtain the median effect value (corresponding to the IC50) and slope (m). The goodness-of-fit was assessed using the linear correlation coefficient, r, and only data from analysis with r > 0.90 are presented. The extent of the interaction between drugs was expressed using the combination index in which a CI value close to 1 indicates additivity, while CI < 1 is defined as synergy and CI > 1 as antagonism.

[5] = test system: COLO 320/MDR-LRP multidrug resistant colonic adenocarcinoma cells expressing P-gp; test: Antiproliferative MTT assay, COLO 320; conditions: for IC50: read-out: IC50 (µM) ± SD COLO 320; for SI MRC-5/COLO 320: selectivity index: IC50 in non-tumour cells / IC50 in cancer cells
Experimental: as §1, §2

[6] = test system: MRC-5 human embryonal lung fibroblast cells; test: Antiproliferative MTT assay, MRC-5 non-tumor cells; format: cell-based; conditions: four parallel measurements, read-out: IC50 (µM) ± SD MRC-5
Experimental: as §1, §2

[7] = Stability of the hemiacetal, 1H NMR measured again; format: physicochemical; conditions: 1H NMR measured again one day later; two sets of signals approx. 1:0.6
Description: Compound 2 (ensifolin B) has the molecular formula C25H24O4 compatible with the fragment ion in the HRESIMS at m/z 369.1497 [M − H2O − H]^− (calcd for 369.1491). […] The structure of the phenanthrene skeleton was assembled through 2D NMR analysis. It was concluded that the phenanthrene core of compound 2 is identical to sylvaticin A, a 9,10-dihydrophenanthrene recently described from Luzula sylvatica. However, NMR characteristics of the H2-11 oxymethylene in 2 are different compared to those of sylvaticin A, including its […] shifted carbon (δC 66.2 vs. 60.2) and magnetically inequivalent protons (δH 5.19 and 5.09, vs. δH 5.01, 2H, s). […] Similar to compound 1, ensifolin B (2) also has an asymmetric carbon atom (C-1′). The specific rotation value [α ]D25 of the compound was +2 (c 0.1, MeOH). When compound 2 was injected onto a chiral HPLC column, it eluted with two well-separated peaks with a peak ratio area of 1:1. […] Intermolecular hemiacetals are intrinsically unstable with respect to their parent alcohols and aldehydes. […] Considering that sylvaticin A and 4-hydroxybenzaldehyde, the minor compounds of the mixture were also isolated from other fractions (compound 16 and 18, respectively), it is unclear whether these phytochemicals originally presented in the harvested plant material or whether they are just by-products of the decomposition of compound 2.

[8] = test system: superoxide anion generation; design: method as in PMID 27940118; conditions: anti-inflammatory activity ref 16; cited from earlier work
human neutrophils = test system: human neutrophils; design: method as in PMID 27940118; conditions: fMLP/CB activation ref 16, read-out: IC50 elastase release; cited from earlier work
HeLa cells [9] = test system: HeLa cells; design: method as in PMID 33064469; conditions: HeLa ref 15; read-out: IC50 antiproliferative activity against HeLa cells; cited from earlier work
[10] = MTT, 72 h, four parallel measurements

Molecule	IC50 [1]	stability of initially pure compound [7]	IC50 [3]	activity relative to positive control cisplatin ([1]; COLO 205 cells)	IC50 ([1]; Homo sapiens, COLO 205, 72 h)	IC50 [2]	IC50 ([3]; Homo sapiens, HeLa)	SI MRC-5/HeLa [3]	Interaction (HeLa cells [4])	CI (combination index) (HeLa cells [4])	IC50 ([5]; Homo sapiens, COLO 320, 72 h)	SI MRC-5/COLO 320 [5]	IC50 ([6]; Homo sapiens, MRC5, 72 h)	SI MRC-5/COLO 205 [1]	IC50 [5, 10]	IC50 ([6]; 72 h)	IC50 [8]	IC50 (human neutrophils)	IC50 (HeLa cells [9])
Cc1cc(O)c2c(c1C(O)COc1cc(-c3cc(=O)c4c(O)cc(O)cc4o3)ccc1O)CCc1c-2ccc(O)c1C (stereo not shown) [Compound 1, Ensifolin A]	3.86 ± 0.08 µM	–	–	more than ten-fold	3.9 µM	3.9 to 12.7 µM	8.25 ± 0.51 µM	2.34	strong synergism (0.1 < CI < 0.3: strong synergism)	0.272	12.71 ± 0.05 µM	1.52	19.3 ± 0.54 µM	–	–	–	–	–	–
C=Cc1cc(C)cc2c1-c1ccc(O)c(C)c1C(O)C2 (stereo not shown) [Compound 3, 2,10-dihydroxy-1,7-dimethyl-5-vinyl-9,10-dihydrophenanthrene]	–	–	–	–	> 100 µM	–	> 100 µM	–	synergism (0.3 < CI < 0.7: synergism)	0.580	> 100 µM	–	> 100 µM	–	–	–	–	–	–
C=Cc1cc(C)cc2c1-c1ccc(O)c(COC)c1CC2 [Compound 4, Ensifolin D]	–	–	–	–	65.6 ± 0.78 µM	–	19.4 ± 0.33 µM	>5.15	synergism (0.3 < CI < 0.7: synergism)	0.643	61.6 ± 9.95 µM	>1.62	> 100 µM	>1.52	–	–	–	–	–
C=Cc1c(C)cc(O)c2c1CCc1c-2ccc(O)c1C [Compound 5, 2,5-dihydroxy-1,7-dimethyl-8-vinyl-9,10-dihydrophenanthrene]	–	–	–	–	31.2 ± 0.66 µM	25.2 to 31.2 µM	27.5 ± 1.19 µM	1.61	very strong synergism (CI < 0.1: very strong synergism)	–	25.2 ± 0.92 µM	1.76	44.3 ± 0.61 µM	1.42	–	–	–	–	–
C=Cc1c(CO)cc(O)c2c1CCc1c-2ccc(O)c1C [Compound 6, Ensifolin F]	–	–	–	–	> 100 µM	–	74.3 ± 2.98 µM	>1.35	strong synergism (0.1 < CI < 0.3: strong synergism)	0.159	93.71 ± 0.14 µM	>1.07	> 100 µM	–	–	–	–	–	–
CC(=O)c1c(C)cc(O)c2c1CCc1c-2ccc(O)c1C [Compound 7, Ensifolin G]	–	–	–	–	> 100 µM	–	75.6 ± 0.94 µM	>1.32	synergism (0.3 < CI < 0.7: synergism)	0.568	> 100 µM	–	> 100 µM	–	–	–	–	–	–
C=Cc1c(C)cc(O)c2c1CCc1c-2cc(-c2cc3c(c(C)c2O)CCc2c(C=C)c(C)cc(O)c2-3)c(O)c1C [Compound 10, Ensifolin J]	–	–	–	–	44.5 ± 1.22 µM	–	33.5 ± 1.89 µM	1.72	synergism (0.3 < CI < 0.7: synergism)	0.454	42.8 ± 1.28 µM	1.35	57.8 ± 1.32 µM	1.30	–	–	–	–	–
C=Cc1c(C)cc(O)c2c1CCc1c-2cc(-c2c(O)c(C)c(C=C)c3ccc4c(C)c(O)ccc4c23)c(O)c1C [Compound 11, Ensifolin K]	–	–	–	–	31.4 ± 0.72 µM	–	29.5 ± 0.31 µM	1.12	strong synergism (0.1 < CI < 0.3: strong synergism)	0.112	37.8 ± 1.05 µM	0.88	33.16 ± 0.05 µM	1.06	–	–	–	–	–
C=Cc1c(C)cc(O)c2c1CCc1c-2cc(-c2c(C)c(C=C)c3c(c2O)-c2ccc(O)c(C)c2CC3)c(O)c1C [Compound 12, Ensifolin L]	–	–	–	–	26.9 ± 1.19 µM	–	30.22 ± 0.21 µM	1.67	strong synergism (0.1 < CI < 0.3: strong synergism)	0.120	37.4 ± 2.13 µM	1.35	50.4 ± 1.3 µM	1.87	–	–	–	–	–
C=Cc1cc(C)cc2c1-c1ccc(O)c(C)c1CC2 [Compound 14, 2-hydroxy-1,7-dimethyl-5-vinyl-9,10-dihydrophenanthrene]	–	–	–	–	32.9 ± 0.59 µM	–	58.1 ± 1.2 µM	1.05	synergism (0.3 < CI < 0.7: synergism)	0.579	52.4 ± 0.77 µM	1.16	60.89 ± 0.25 µM	1.85	–	–	–	–	–
C#Cc1c(C)c(O)cc2c1CCc1c-2ccc(O)c1C [Compound 16, juncatrin B]	34.4 ± 0.57 µM	–	6.65 ± 0.1 µM	–	–	–	–	3.91	synergism (0.3 < CI < 0.7: synergism)	0.682	–	0.80	–	0.76	32.5 ± 0.75 µM	26 ± 0.85 µM	–	–	–
O=Cc1ccc(O)cc1 [Compound 18, 4-hydroxybenzaldehyde]	–	–	–	–	> 100 µM	–	> 100 µM	–	–	–	> 100 µM	–	> 100 µM	–	–	–	–	–	–
O=c1cc(-c2ccc(O)c(O)c2)oc2cc(O)cc(O)c12 [Compound 19, luteolin]	–	–	–	–	> 100 µM	–	> 100 µM	–	–	–	> 100 µM	–	> 100 µM	–	–	–	–	–	–
N.N.[Cl][Pt][Cl] [cisplatin, reference compound]	41.7 ± 1.62 µM	–	3.62 ± 0.16 µM	–	–	–	–	–	–	–	–	–	–	–	–	2.36 ± 0.33 µM	–	–	–
COc1cccc2c1C(=O)c1c(O)c3c(c(O)c1C2=O)C[C@@](O)(C(=O)CO)C[C@@H]3O[C@H]1C[C@H](N)[C@H](O)[C@H](C)O1 [doxorubicin]	–	–	–	–	1.36 ± 0.36 µM	–	0.04 ± 0.004 µM	–	–	–	0.22 ± 0.004 µM	–	0.53 ± 0.06 µM	–	–	–	–	–	–
C=Cc1c(C)c(O)cc2c1-c1ccc(O)c(C)c1CC2 [juncusol, reference compound]	–	–	–	–	–	–	–	–	–	–	–	–	–	–	–	–	3.1 µM	–	–

More lines, main results first:

IC50 [1]	stability of initially pure compound [7]	IC50 [3]	Molecule	activity relative to positive control cisplatin ([1]; COLO 205 cells)	IC50 ([1]; Homo sapiens, COLO 205, 72 h)	IC50 [2]	IC50 ([3]; Homo sapiens, HeLa)	SI MRC-5/HeLa [3]	Interaction (HeLa cells [4])	CI (combination index) (HeLa cells [4])	IC50 ([5]; Homo sapiens, COLO 320, 72 h)	SI MRC-5/COLO 320 [5]	IC50 ([6]; Homo sapiens, MRC5, 72 h)	SI MRC-5/COLO 205 [1]	IC50 [5, 10]	IC50 ([6]; 72 h)	IC50 [8]	IC50 (human neutrophils)	IC50 (HeLa cells [9])
–	showed signs of decomposition	–	C=Cc1cc(C)cc2c1-c1ccc(O)c(COC(O)c3ccc(O)cc3)c1CC2 (stereo not shown) [Compound 2, Ensifolin B]	–	45.6 ± 0.5 µM	–	33.49 ± 0.29 µM	1.55	synergism (0.3 < CI < 0.7: synergism)	0.584	37.24 ± 0.11 µM	1.39	51.87 ± 0.14 µM	1.14	–	–	–	–	–
37.1 ± 0.57 µM	–	6.67 ± 0.03 µM	juncuenin B [Compound 15]	–	–	–	–	5.37	slight synergism (0.7 < CI < 0.9: moderate to slight synergism)	0.864	–	1.17	–	0.97	30.5 ± 0.93 µM	35.9 ± 1.23 µM	4.9 µM	5.5 µM	2.9 µM
56.7 ± 0.75 µM	–	10.56 ± 0.09 µM	sylvaticin A [Compound 17]	–	–	–	–	>9.47	strong synergism (0.1 < CI < 0.3: strong synergism)	0.279	–	>1.73	–	>1.76	57.7 ± 0.92 µM	> 100 µM	–	–	–
